Experiments:
[1] = mn = molality of the nth substance listed, in mol/kg; settings: 101 kPa, Liquid; for viscosity: Capillary tube (Ostwald / Ubbelohde) method; for mass density: Vibrating tube method
[2] = 101 kPa, Liquid; for viscosity: Capillary tube (Ostwald / Ubbelohde) method; for mass density: Vibrating tube method

CCCCO [butan-1-ol] + Cc1ccc(N)cc1N
[1], m2 = 0
Settings | mass density [kg/m3] | viscosity [mPa·s]
293.15 K | 809.69 | 2.908
303.15 K | 802.04 | 2.225
313.15 K | 794.27 | 1.723
323.15 K | 786.32 | 1.351
333.15 K | 778.16 | 1.071

CCO [ethanol] + Cc1c(N)cccc1N
[1], m2 = 0
Settings | mass density [kg/m3] | viscosity [mPa·s]
293.15 K | 789.56 | 1.179
303.15 K | 780.98 | 0.972
313.15 K | 772.22 | 0.806
323.15 K | 763.29 | 0.672
333.15 K | 754.18 | 0.564

CCCO [propan-1-ol] + Cc1c(N)cccc1N
[1], m2 = 0
Settings | mass density [kg/m3] | viscosity [mPa·s]
293.15 K | 803.86 | 2.171
303.15 K | 795.54 | 1.696
313.15 K | 787.37 | 1.338
323.15 K | 779.01 | 1.067
333.15 K | 770.42 | 0.859

Cc1ccc(N)cc1N [4-methyl-1,3-benzendiamine] + CCCCO
[1]
Settings | mass density, 293.15 K [kg/m3] | mass density, 303.15 K [kg/m3] | mass density, 313.15 K [kg/m3] | mass density, 323.15 K [kg/m3] | mass density, 333.15 K [kg/m3] | viscosity, 293.15 K [mPa·s] | viscosity, 303.15 K [mPa·s] | viscosity, 313.15 K [mPa·s] | viscosity, 323.15 K [mPa·s] | viscosity, 333.15 K [mPa·s]
m1 = 0.0497 | 811.16 | 803.49 | 795.7 | 787.74 | 779.59 | 2.922 | 2.237 | 1.731 | 1.357 | 1.076
m1 = 0.0997 | 812.62 | 804.93 | 797.13 | 789.15 | 781 | 2.939 | 2.246 | 1.736 | 1.362 | 1.079
m1 = 0.1501 | 814.06 | 806.37 | 798.55 | 790.56 | 782.41 | 2.954 | 2.258 | 1.746 | 1.367 | 1.083
m1 = 0.1999 | 815.48 | 807.77 | 799.94 | 791.94 | 783.78 | 2.972 | 2.269 | 1.751 | 1.372 | 1.087
m1 = 0.2491 | 816.86 | 809.14 | 801.3 | 793.29 | 785.12 | 2.994 | 2.279 | 1.759 | 1.377 | 1.091

CCO [ethanol]
[2]
Settings | mass density [kg/m3] | viscosity [mPa·s]
293.15 K | 789.56 | 1.179
303.15 K | 780.98 | 0.972
313.15 K | 772.22 | 0.806
323.15 K | 763.29 | 0.672
333.15 K | 754.18 | 0.564

Cc1c(N)cccc1N [2,6-diaminotoluene] + O
[1]
Settings | mass density, 293.15 K [kg/m3] | mass density, 303.15 K [kg/m3] | mass density, 313.15 K [kg/m3] | mass density, 323.15 K [kg/m3] | mass density, 333.15 K [kg/m3] | viscosity, 293.15 K [mPa·s] | viscosity, 303.15 K [mPa·s] | viscosity, 313.15 K [mPa·s] | viscosity, 323.15 K [mPa·s] | viscosity, 333.15 K [mPa·s]
m1 = 0.0501 | 998.9 | 996.32 | 992.86 | 988.65 | 983.81 | 1.032 | 0.813 | 0.665 | 0.557 | 0.4741
m1 = 0.1002 | 999.59 | 996.97 | 993.49 | 989.24 | 984.38 | 1.053 | 0.832 | 0.677 | 0.563 | 0.479
m1 = 0.1502 | 1000.27 | 997.61 | 994.1 | 989.82 | 984.89 | 1.066 | 0.838 | 0.681 | 0.568 | 0.483
m1 = 0.2 | 1000.92 | 998.24 | 994.69 | 990.38 | 985.37 | 1.081 | 0.85 | 0.69 | 0.573 | 0.487
m1 = 0.2497 | 1001.57 | 998.86 | 995.27 | 990.93 | 985.79 | 1.09 | 0.854 | 0.694 | 0.575 | 0.488
m1 = 0.2993 | 1002.21 | 999.47 | 995.84 | 991.46 | 986.15 | 1.112 | 0.87 | 0.702 | 0.585 | 0.495

CCO [ethanol] + Cc1ccc(N)cc1N
[1], m2 = 0
Settings | mass density [kg/m3] | viscosity [mPa·s]
293.15 K | 789.56 | 1.179
303.15 K | 780.98 | 0.972
313.15 K | 772.22 | 0.806
323.15 K | 763.29 | 0.672
333.15 K | 754.18 | 0.564

CCCO [propan-1-ol]
[2]
Settings | mass density [kg/m3] | viscosity [mPa·s]
293.15 K | 803.86 | 2.171
303.15 K | 795.54 | 1.696
313.15 K | 787.37 | 1.338
323.15 K | 779.01 | 1.067
333.15 K | 770.42 | 0.859

O [water] + Cc1c(N)cccc1N
[1], m2 = 0
Settings | mass density [kg/m3] | viscosity [mPa·s]
293.15 K | – | 1.002
303.15 K | – | 0.798
313.15 K | – | 0.653
323.15 K | 988.04 | 0.547
333.15 K | 983.2 | 0.467

CCCO [propan-1-ol] + Cc1ccc(N)cc1N
[1], m2 = 0
Settings | mass density [kg/m3] | viscosity [mPa·s]
293.15 K | 803.86 | 2.171
303.15 K | 795.54 | 1.696
313.15 K | 787.37 | 1.338
323.15 K | 779.01 | 1.067
333.15 K | 770.42 | 0.859

Cc1c(N)cccc1N [2,6-diaminotoluene] + CCCCO
[1]
Settings | mass density, 293.15 K [kg/m3] | mass density, 303.15 K [kg/m3] | mass density, 313.15 K [kg/m3] | mass density, 323.15 K [kg/m3] | mass density, 333.15 K [kg/m3] | viscosity, 293.15 K [mPa·s] | viscosity, 303.15 K [mPa·s] | viscosity, 313.15 K [mPa·s] | viscosity, 323.15 K [mPa·s] | viscosity, 333.15 K [mPa·s]
m1 = 0.05 | 811.28 | 803.61 | 795.81 | 787.85 | 779.68 | 2.922 | 2.233 | 1.728 | 1.356 | 1.075
m1 = 0.0995 | 812.81 | 805.13 | 797.31 | 789.34 | 781.16 | 2.941 | 2.246 | 1.735 | 1.361 | 1.078
m1 = 0.1499 | 814.34 | 806.66 | 798.81 | 790.84 | 782.65 | 2.96 | 2.259 | 1.746 | 1.368 | 1.085
m1 = 0.1994 | 815.82 | 808.13 | 800.27 | 792.28 | 784.08 | 2.978 | 2.268 | 1.755 | 1.374 | 1.087
m1 = 0.2495 | 817.27 | 809.58 | 801.7 | 793.7 | 785.5 | 3.001 | 2.291 | 1.764 | 1.379 | 1.093

Cc1ccc(N)cc1N [4-methyl-1,3-benzendiamine] + O
[1]
Settings | mass density, 293.15 K [kg/m3] | mass density, 303.15 K [kg/m3] | mass density, 313.15 K [kg/m3] | mass density, 323.15 K [kg/m3] | mass density, 333.15 K [kg/m3] | viscosity, 293.15 K [mPa·s] | viscosity, 303.15 K [mPa·s] | viscosity, 313.15 K [mPa·s] | viscosity, 323.15 K [mPa·s] | viscosity, 333.15 K [mPa·s]
m1 = 0.0503 | 998.84 | 996.26 | 992.81 | 988.59 | 983.71 | 1.018 | 0.81 | 0.662 | 0.554 | 0.472
m1 = 0.0998 | 999.45 | 996.84 | 993.36 | 989.11 | 984.2 | 1.035 | 0.822 | 0.671 | 0.562 | 0.479
m1 = 0.1503 | 1000.06 | 997.41 | 993.9 | 989.62 | 984.68 | 1.051 | 0.831 | 0.679 | 0.571 | 0.484
m1 = 0.1999 | 1000.64 | 997.95 | 994.42 | 990.11 | 985.14 | 1.069 | 0.842 | 0.686 | 0.578 | 0.49

O [water]
[2]
Settings | mass density [kg/m3] | viscosity [mPa·s]
293.15 K | – | 1.002
303.15 K | – | 0.798
313.15 K | – | 0.653
323.15 K | 988.04 | 0.547
333.15 K | 983.2 | 0.467

CCCCO [butan-1-ol] + Cc1c(N)cccc1N
[1], m2 = 0
Settings | mass density [kg/m3] | viscosity [mPa·s]
293.15 K | 809.69 | 2.908
303.15 K | 802.04 | 2.225
313.15 K | 794.27 | 1.723
323.15 K | 786.32 | 1.351
333.15 K | 778.16 | 1.071

CCCCO [butan-1-ol]
[2]
Settings | mass density [kg/m3] | viscosity [mPa·s]
293.15 K | 809.69 | 2.908
303.15 K | 802.04 | 2.225
313.15 K | 794.27 | 1.723
323.15 K | 786.32 | 1.351
333.15 K | 778.16 | 1.071

O [water] + Cc1ccc(N)cc1N
[1], m2 = 0
Settings | mass density [kg/m3]
323.15 K | 988.04
333.15 K | 983.2
